Measurements from patent publication US20240424010A1, “NICOTINAMIDE RIBOSIDE TRIOLEATES CHLORIDE, COMPOSITIONS CONTAINING THIS COMPOUND, AND METHODS OF MAKING AND USING THIS COMPOUND” (SOCIETE DES PRODUITS NESTLE S.A., priority 2021, published 2024).

Test system: porcine pancreatin
Experimental: In vitro digestion of NRTOCl in pure form and dissolved in MCT oil was investigated in the following procedures.
The buffer for simulated intestinal phase was prepared according to the following protocol.^29 Specifically, 60 mg of NRTOCl was dissolved in 0.3 mL ethanol and added to 10 g of a buffer solution containing 400 mg bile bovine. 0.75 mL of a CaCl2 solution (0.3 M) was added to this mixture, and the pH was adjusted around 7 by using HCl (1 M). Then, 400 mg of fresh porcine pancreatin was dispersed in 4 mL of buffer solution and added to the mixture. The sample was placed in an incubator (250 rpm) at 37°° C. for 30 minutes. Subsequently, the sample was taken out of the incubator to adjust the pH to around 7 and returned to the incubator for another 30 minutes. The incubation steps and adjusting pH were repeated every 30 minutes until 2 hours were over. For quenching the enzyme, the sample was placed in an ice bath, and then 1.5 mL of the sample was centrifuged at 14,000 rpm for 10 minutes. Finally, the aqueous phase was separated and filtered by a 0.22 μm filter for determination of released NR and nicotinamide.
60 mg of NRTOCl was dissolved in 150 mg of MCT oil to prepare 29% w/w NRTO in MCT oil. Aqueous phase was 10 g of the buffer solution containing 400 mg bile bovine. The oil phase was added to the aqueous phase and homogenized at […] for 150 seconds at room temperature. 0.75 mL of a CaCl2 solution (0.3 M) was added to this mixture, and the pH was adjusted around 7 by using HCl (1 M). Then, 400 mg of fresh porcine pancreatin was dispersed in 5 mL of buffer solution and added to the mixture. The sample was placed in an incubator (250 rpm) at 37° C. for 30 minutes. Then, the sample was taken out of the incubator to adjust the pH to around 7 (by NaOH 1 M) and returned to the incubator for another 30 minutes. The incubating and adjusting pH steps were repeated every 30 minutes until 2 hours were over. For quenching the enzyme, the sample was placed in an ice bath and then 1.5 mL of the sample was centrifuged at 14000 rpm for 10 min. Finally, the aqueous phase was separated and filtered by a 0.22 μm filter for determination of released NR and nicotinamide.
After the NRTOCl stability study in different conditions, the digestibility of this compound to produce NR in simulated intestinal fluid was studied. This enzymatic digestion used porcine pancreatin, bile bovine, and a buffer solution at pH around 7.^29 The lipase enzyme in porcine pancreatin can hydrolyze the fatty ester groups to produce NR, NRDO (nicotinamide riboside dioleates), NRMO (nicotinamide riboside monoleate) and oleic acid as the main products of digestion (FIG. 16). Moreover, nicotinamide (NAM) and ribose-trioleates (RTO) can be formed as the products of hydrolysis of NRTO not digestion. By considering this hypothesis, the NRTO digestion was studied in simulated intestinal phase.
At first, the digestion study was followed by dissolving pure NRTOCl (60 mg) in 0.3 mL of ethanol, and then this solution was added to 10 mL of buffer solution containing 400 mg of bile bovine to disperse NRTO in bile bovine solution. After that, 0.75 mL of CaCl2 solution (0.3M) was added to this mixture, and the pH was adjusted to 7.0 by adding HCl (1 M). […] The released NR and nicotinamide from the sample was measured by LC-MS and HPLC analyses.

- NRTO completely digested: at least 27.5%
- digestibility to release NR: digestible
- nicotinamide detected (N-glycosidic bond hydrolysis) during digestion: 3.9%
- nicotinamide measured (N-glycosidic bond hydrolysis) during digestion: 2.4%
- ribose-trioleates formed during digestion: 2.4%
SMILES: CCCCCCCC/C=C\CCCCCCCC(=O)OC[C@H]1O[C@@H]([n+]2cccc(C(N)=O)c2)[C@H](OC(=O)CCCCCCC/C=C\CCCCCCCC)[C@@H]1OC(=O)CCCCCCC/C=C\CCCCCCCC.[Cl-] [NRTOCl, nicotinamide riboside trioleates chloride]
